Assay results: ChEMBL document CHEMBL5154682, “TDP-43 Modulation by Tau-Tubulin Kinase 1 Inhibitors: A New Avenue for Future Amyotrophic Lateral Sclerosis Therapy” (J Med Chem, 2022)
Calls of active or inactive are those of the source. The calls are words filed in the database; no cut-off is given here.

Tests used:
[1] = Permeability in BALB/c mouse assessed as brain to plasma ratio at 10 mg/kg, po measured for 0.25 to 24 hrs by LC-MS/MS analysis; format: ADME, organism-based; conditions: time 0.25-24 hrs
Mus musculus [2] = experiment: Immunomodulatory effect in Prp-hTDP-43 (A315T) transgenic mouse assessed as decrease in Iba-1 immunoreactivity in microglial cells at 5 mg/kg, ip qd for 30 days by immunofluorescence analysis; format: functional, organism-based; conditions: time 30.0 day
Mus musculus [3] = experiment: Immunomodulatory effect in Prp-hTDP-43 (A315T) transgenic mouse assessed as increase in […] expression in lumbar region of spinal cord at 5 mg/kg, ip qd for 30 days by western blot analysis; format: functional, organism-based; conditions: time 30.0 day
[4] = Cmax in BALB/c mouse plasma at 10 mg/kg, po measured for 0.25 to 24 hrs by LC-MS/MS analysis; format: ADME, organism-based; set-up: time upper 24 hrs, time lower 0.25 hrs, dose 10 mg/kg, route po
Tau-tubulin kinase 1 [5] = target: T1, Tau-tubulin kinase 1 (Homo sapiens, UniProt Q5TCY1); experiment: Inhibition of recombinant human TTBK1 in ethacrynic acid-treated human SH-SY5Y cells assessed as nuclear localization by measuring reduction in cytosolic TDP-43 accumulation at 5 uM preincubated for 1 hr followed by EA addition and further incubated for 24 hrs by confocal laser scanning microscopy; conditions: time 25.0 hrs
T1 sequence (Q5TCY1 whole entry): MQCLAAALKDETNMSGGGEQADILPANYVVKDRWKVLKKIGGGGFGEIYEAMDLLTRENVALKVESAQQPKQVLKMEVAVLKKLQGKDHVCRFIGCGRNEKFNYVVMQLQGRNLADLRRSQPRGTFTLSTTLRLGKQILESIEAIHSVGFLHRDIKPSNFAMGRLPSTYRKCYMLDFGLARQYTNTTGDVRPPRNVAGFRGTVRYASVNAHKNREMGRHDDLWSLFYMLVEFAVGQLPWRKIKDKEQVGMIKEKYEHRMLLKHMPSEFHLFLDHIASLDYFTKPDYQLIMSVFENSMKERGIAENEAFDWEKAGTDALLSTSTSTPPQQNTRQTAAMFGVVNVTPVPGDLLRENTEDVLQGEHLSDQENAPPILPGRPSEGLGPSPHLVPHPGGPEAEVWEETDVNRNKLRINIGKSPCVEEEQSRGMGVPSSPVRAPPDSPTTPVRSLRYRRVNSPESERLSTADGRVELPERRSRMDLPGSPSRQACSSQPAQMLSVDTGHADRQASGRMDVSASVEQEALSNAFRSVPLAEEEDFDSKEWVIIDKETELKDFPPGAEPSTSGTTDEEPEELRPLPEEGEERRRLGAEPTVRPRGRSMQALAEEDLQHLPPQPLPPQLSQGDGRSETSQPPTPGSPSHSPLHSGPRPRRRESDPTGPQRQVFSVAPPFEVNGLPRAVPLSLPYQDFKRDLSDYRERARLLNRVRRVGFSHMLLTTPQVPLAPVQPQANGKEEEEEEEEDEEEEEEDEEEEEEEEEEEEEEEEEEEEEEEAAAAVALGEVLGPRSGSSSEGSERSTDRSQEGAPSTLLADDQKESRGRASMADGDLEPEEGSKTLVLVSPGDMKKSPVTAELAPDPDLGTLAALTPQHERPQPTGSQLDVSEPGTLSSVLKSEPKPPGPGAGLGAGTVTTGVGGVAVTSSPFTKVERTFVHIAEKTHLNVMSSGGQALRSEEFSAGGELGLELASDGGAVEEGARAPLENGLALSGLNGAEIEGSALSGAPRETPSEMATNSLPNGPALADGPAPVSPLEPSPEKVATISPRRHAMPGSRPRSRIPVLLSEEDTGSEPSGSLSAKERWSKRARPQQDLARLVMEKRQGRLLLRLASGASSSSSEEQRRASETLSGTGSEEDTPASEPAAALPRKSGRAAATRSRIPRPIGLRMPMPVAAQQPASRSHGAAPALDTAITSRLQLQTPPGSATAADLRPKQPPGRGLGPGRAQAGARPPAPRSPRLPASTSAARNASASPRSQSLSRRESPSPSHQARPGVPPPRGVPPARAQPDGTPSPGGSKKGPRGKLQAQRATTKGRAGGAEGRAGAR

[6] = AUClast in BALB/c mouse brain at 5 mg/kg, ip measured for 0.08 to 24 hrs by LC-MS/MS analysis; format: ADME, organism-based; set-up: dose 5 mg/kg, time 0.08-24 hrs, route ip
[7] = AUClast in BALB/c mouse brain at 10 mg/kg, po measured for 0.25 to 24 hrs by LC-MS/MS analysis; format: ADME, organism-based; set-up: dose 10 mg/kg, time 0.25-24 hrs, route po
Tau-tubulin kinase 1 [8] = target: T1, Tau-tubulin kinase 1; experiment: Inhibition of TTBK1 in sporadic ALS patient derived human lymphoblasts assessed as reduction in cytosolic TDP-43 levels at 5 to 10 uM treated for 24 hrs by Western blot analysis; format: cell-based; conditions: Lymphoblastoid cell, dose 5-10 µM
SH-SY5Y [9] = experiment: Neuroprotective activity against ethacrynic acid-induced neurotoxicity human SH-SY5Y cells assessed as decrease in TDP-43 phosphorylation at Ser409 at 5 uM preincubated for 1 hr followed by EA addition and further incubated for 24 hrs by Western blot analysis; format: functional, cell-based; conditions: time 25.0 hrs
[10] = Permeability coefficient in BALB/c mouse assessed as brain to plasma ratio at 5 mg/kg, ip measured for 0.08 to 24 hrs by LC-MS/MS analysis; format: ADME, organism-based; conditions: time 0.08-24 hrs
[11] = Cmax in BALB/c mouse plasma at 5 mg/kg, ip measured for 0.08 to 24 hrs by LC-MS/MS analysis; format: ADME, organism-based; set-up: dose 5 mg/kg, time 0.08-24 hrs, route ip
Mus musculus [12] = experiment: Prevention of TDP-43 phosphorylation level in Wild type mouse at lumbar region of spinal cord tissue at 5 mg/kg, ip qd for 30 days by Immunoblot assay; format: functional, organism-based; conditions: time 30.0 day
[13] = Cmax in BALB/c mouse brain at 10 mg/kg, po measured for 0.25 to 24 hrs by LC-MS/MS analysis; format: ADME, organism-based; set-up: dose 10 mg/kg, time upper 24 hrs, time lower 0.25 hrs, route po
[14] = Half life in BALB/c mouse brain at 10 mg/kg, po measured for 0.25 to 24 hrs by LC-MS/MS analysis; format: ADME, organism-based; conditions: time 0.25-24 hrs
[15] = Tmax in BALB/c mouse plasma at 5 mg/kg, ip measured for 0.08 to 24 hrs by LC-MS/MS analysis; format: ADME, organism-based; conditions: time 0.08-24 hrs
SH-SY5Y [16] = experiment: Neuroprotective activity against okadaic acid-induced neurotoxicity in human SH-SY5Y cells assessed as reduction in Tau hyperphosphorylation by measuring cell viability at 1 to 5 uM incubated for 24 hrs by MTT assay; format: functional, cell-based; conditions: dose 1-5 µM
[17] = Half life in BALB/c mouse plasma at 5 mg/kg, ip measured for 0.08 to 24 hrs by LC-MS/MS analysis; format: ADME, organism-based; conditions: time 0.08-24 hrs
Tau-tubulin kinase 1 [18] = target: T1, Tau-tubulin kinase 1; experiment: Inhibition of TTBK1 in sporadic ALS patient derived human lymphoblasts assessed as recovery nuclear localization of TDP-43 levels at 5 to 10 uM treated for 24 hrs by Western blot analysis; format: cell-based; conditions: Lymphoblastoid cell, dose 5-10 µM
[19] = AUClast in BALB/c mouse plasma at 5 mg/kg, ip measured for 0.08 to 24 hrs by LC-MS/MS analysis; format: ADME, organism-based; set-up: dose 5 mg/kg, time 0.08-24 hrs, route ip
Tau-tubulin kinase 1 [20] = target: T1, Tau-tubulin kinase 1; experiment: Inhibition of TTBK1 in sporadic ALS patient derived human lymphoblasts assessed as reduction in TDP-43 phosphorylation levels at 5 to 10 uM treated for 24 hrs by Western blot analysis; format: cell-based; conditions: Lymphoblastoid cell, dose 5-10 µM
Mus musculus [21] = experiment: Immunomodulatory effect in Prp-hTDP-43 (A315T) transgenic mouse assessed as decrease in GFAP immunoreactivity in astrocytes at 5 mg/kg, ip qd for 30 days by immunofluorescence analysis; format: functional, organism-based; conditions: time 30.0 day
[22] = Half life in BALB/c mouse plasma at 10 mg/kg, po measured for 0.25 to 24 hrs by LC-MS/MS analysis; format: ADME, organism-based; conditions: time 0.25-24 hrs
[23] = AUClast in BALB/c mouse plasma at 10 mg/kg, po measured for 0.25 to 24 hrs by LC-MS/MS analysis; format: ADME, organism-based; set-up: dose 10 mg/kg, time upper 24 hrs, time lower 0.25 hrs, route po
Mus musculus [24] = experiment: Protection of neuron degeneration in Prp-hTDP-43 (A315T) transgenic mouse assessed as prevention of reduction in number of motor neurons in ventral horn of spinal cord at 5 mg/kg, ip qd for 30 days by Nissl staining based immunohistochemistry analysis; format: functional, organism-based; conditions: time 30.0 day
[25] = target: Tau tubulin kinase 1 (Rattus norvegicus) (UniProt A0A0G2JTK1); experiment: Inhibition of TTBK1 in Wistar rat primary microglia assessed as reduction in LPS-stimulated iNOS induction at 5 to 25 uM measured after 24 hrs by western blot analysis; format: cell-based; conditions: dose 5-25 µM
Sequence of Tau tubulin kinase 1 (Rattus norvegicus) (A0A0G2JTK1 as listed by the source): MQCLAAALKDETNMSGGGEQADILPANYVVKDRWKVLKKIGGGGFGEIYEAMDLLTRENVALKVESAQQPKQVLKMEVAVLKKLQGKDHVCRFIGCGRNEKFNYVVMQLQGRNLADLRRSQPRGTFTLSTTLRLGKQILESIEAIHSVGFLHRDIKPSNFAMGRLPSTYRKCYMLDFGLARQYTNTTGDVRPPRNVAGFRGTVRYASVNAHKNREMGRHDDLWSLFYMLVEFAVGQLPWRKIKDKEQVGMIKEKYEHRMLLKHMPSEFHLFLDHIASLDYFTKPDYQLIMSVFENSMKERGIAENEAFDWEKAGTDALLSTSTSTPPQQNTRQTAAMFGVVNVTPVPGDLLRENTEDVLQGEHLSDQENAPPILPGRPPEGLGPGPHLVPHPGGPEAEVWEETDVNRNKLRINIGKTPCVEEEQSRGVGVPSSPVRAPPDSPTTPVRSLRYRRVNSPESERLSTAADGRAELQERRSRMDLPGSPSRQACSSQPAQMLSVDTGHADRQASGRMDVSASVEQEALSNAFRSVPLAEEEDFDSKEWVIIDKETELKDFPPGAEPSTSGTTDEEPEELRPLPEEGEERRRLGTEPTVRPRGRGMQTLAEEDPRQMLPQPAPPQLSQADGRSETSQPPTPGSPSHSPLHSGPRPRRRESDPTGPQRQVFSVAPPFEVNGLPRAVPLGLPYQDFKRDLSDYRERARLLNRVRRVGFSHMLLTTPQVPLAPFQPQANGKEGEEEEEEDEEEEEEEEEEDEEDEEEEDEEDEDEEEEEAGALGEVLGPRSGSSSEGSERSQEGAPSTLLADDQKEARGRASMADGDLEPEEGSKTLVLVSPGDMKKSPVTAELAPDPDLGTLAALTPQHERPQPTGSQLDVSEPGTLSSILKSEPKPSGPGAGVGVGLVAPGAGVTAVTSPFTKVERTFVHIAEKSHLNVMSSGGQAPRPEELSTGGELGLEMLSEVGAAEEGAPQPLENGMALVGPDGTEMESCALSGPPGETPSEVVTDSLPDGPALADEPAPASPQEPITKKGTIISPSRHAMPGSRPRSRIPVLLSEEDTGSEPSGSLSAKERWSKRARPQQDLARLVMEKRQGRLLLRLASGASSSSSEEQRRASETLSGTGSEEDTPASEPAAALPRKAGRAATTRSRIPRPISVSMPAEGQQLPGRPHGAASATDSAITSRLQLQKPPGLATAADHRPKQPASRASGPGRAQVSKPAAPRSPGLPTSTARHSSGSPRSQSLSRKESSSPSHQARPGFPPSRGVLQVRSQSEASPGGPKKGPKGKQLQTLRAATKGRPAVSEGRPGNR

Mus musculus [26] = experiment: Protection of neuron degeneration in Prp-hTDP-43 (A315T) transgenic mouse assessed as prevention of reduction in number of motor neurons in ventral horn of spinal cord at 5 mg/kg, ip qd for 30 days by choline acetyl transferase staining based immunohistochemistry analysis; format: functional, organism-based; conditions: time 30.0 day
[27] = Half life in BALB/c mouse brain at 5 mg/kg, ip measured for 0.08 to 24 hrs by LC-MS/MS analysis; format: ADME, organism-based; conditions: time 0.08-24 hrs
[28] = Cmax in BALB/c mouse brain at 5 mg/kg, ip measured for 0.08 to 24 hrs by LC-MS/MS analysis; format: ADME, organism-based; set-up: dose 5 mg/kg, time upper 24 hrs, time lower 0.08 hrs, route ip
[29] = Permeability of the compound at pH 7.4 PBS/EtOH buffer (70:30) by PAMPA-BBB assay
Mus musculus [30] = experiment: Immunomodulatory effect in Prp-hTDP-43 (A315T) transgenic mouse assessed as reduction in iNOS expression in lumbar region of spinal cord at 5 mg/kg, ip qd for 30 days by Western blot analysis; format: functional, organism-based; conditions: time 30.0 day
[31] = Tmax in BALB/c mouse plasma at 10 mg/kg, po measured for 0.25 to 24 hrs by LC-MS/MS analysis; format: ADME, organism-based; conditions: time 0.25-24 hrs
SH-SY5Y [32] = experiment: Neuroprotective activity against ethacrynic acid-induced neurotoxicity human SH-SY5Y cells assessed as increase in cell viability at 5 uM preincubated for 1 hr followed by ethacrynic acid addition and further incubated for 24 hrs by MTT assay; format: functional, cell-based; conditions: time 25.0 hrs
[33] = Tmax in BALB/c mouse brain at 5 mg/kg, ip measured for 0.08 to 24 hrs by LC-MS/MS analysis; format: ADME, organism-based; conditions: time 0.08-24 hrs
[34] = Tmax in BALB/c mouse brain at 10 mg/kg, po measured for 0.25 to 24 hrs by LC-MS/MS analysis; format: ADME, organism-based; conditions: time 0.25-24 hrs

**Q.** What does the source list for `Clc1ccc(Oc2ccc(Nc3ncnc4[nH]ccc34)cc2)cc1`?
**A.** Kp [1]: 2.67; Activity (Mus musculus [2]): Active; Activity (Mus musculus [3]): Active; Cmax [4]: 2270 ng/mL; inhibition (Tau-tubulin kinase 1 [5]): Active; AUC(0-t) [6]: 15700 ng·h/mL; AUC(0-t) [7]: 49200 ng·h/mL; Activity (Tau-tubulin kinase 1 [8]): Active; Activity (SH-SY5Y [9]): Active; Kp [10]: 2.63; Cmax [11]: 1430 ng/mL; Activity (Mus musculus [12]): Active; Cmax [13]: 4920 ng/mL; half-life [14]: 3.4 h; Tmax [15]: 1 h; Activity (SH-SY5Y [16]): Active; half-life [17]: 3.75 h; Activity (Tau-tubulin kinase 1 [18]): Active; AUC(0-t) [19]: 5960 ng·h/mL; Activity (Tau-tubulin kinase 1 [20]): Active; Activity (Mus musculus [21]): Active; half-life [22]: 3.3 h; AUC(0-t) [23]: 18400 ng·h/mL; Activity (Mus musculus [24]): Active; inhibition [25]: Active; Activity (Mus musculus [26]): Active; half-life [27]: 3.46 h; Cmax [28]: 4170 ng/mL; permeability [29]: Permeable; Activity (Mus musculus [30]): Active; Tmax [31]: 2 h; Activity (SH-SY5Y [32]): Active; Tmax [33]: 1 h; Tmax [34]: 2 h
